Like-named read-outs stand apart in the source and are kept apart here.
Key:
[1] = Population pharmacokinetics; set-up: species or system human
Exposure-response safety = assay type: in vivo, human; conditions: for predicted probability of AST increase grade ≥ 2 event within a cycle: ASCEMBL study
[2] = TEAEs leading to dose reduction/interruption, time-dependent Cox regression; assay type: in vivo, human; conditions: 152 of 351 patients; pooled dose-finding and ASCEMBL
[3] = Concentration-QTcF analysis; assay type: in vivo, human
[4] = test system: BCR::ABL1^IS in patients with CML-CP treated with two or more prior TKIs; conditions: asciminib 40 mg b.i.d. vs bosutinib 500 mg q.d.; cited from earlier work
[5] = asciminib 40 mg b.i.d. vs bosutinib 500 mg q.d.; cited from earlier work
[6] = cited from earlier work
[7] = cited from earlier work; remark: listed apart in the source
[8] = test system: BCR::ABL1^IS levels in patients with CML-CP without the T315I mutation; experiment: Exposure-response efficacy; conditions: Cmin model

Cmin lower for 80 mg q.d. compared with 40 mg b.i.d. [1]	increase in Cmax with 80 mg q.d. compared with 40 mg b.i.d. ([1]; based on PopPK)	SMILES	predicted probability of AST increase grade ≥ 2 event within a cycle (Exposure-response safety; 5-fold increase in geometric mean Cmax of 40 mg b.i.d.)	predicted probability of AST increase grade ≥ 2 event within a cycle (Exposure-response safety; geometric mean Cmax of 40 mg b.i.d.)	relationship between asciminib exposure and the majority of the laboratory events analyzed (Exposure-response safety; repeated measures logistic regression)	patients with TEAEs leading to dose reduction or dose interruption [2]	estimated mean QTcF change from baseline ([3]; at Cmax of 40 mg b.i.d.)	estimated mean QTcF change from baseline ([3]; at Cmax of 80 mg q.d.)	estimated mean QTcF change from baseline ([3]; at Cmax of 200 mg b.i.d.)	estimated mean QTcF change from baseline ([3]; at the HCRE (highest clinically relevant exposure))	proportion of patients achieving MMR (BCR::ABL1^IS ≤ 0.1%) at 96 weeks [4]	AEs leading to treatment discontinuation [5]	grade ≥ 3 adverse events [5]	increase in Cmax of asciminib when taken in combination with imatinib [6]	decrease in exposure compared with the fasted state ([7]; high-fat meal)	decrease in exposure compared with the fasted state ([7]; low-fat meal)	decrease in drug effect with a Cmin lower by 30% [8]	Effmag (population mean, RSE) ([8]; patients without T315I)
about 30%	60%	O=C(Nc1ccc(OC(F)(F)Cl)cc1)c1cnc(N2CC[C@@H](O)C2)c(-c2ccn[nH]2)c1 [asciminib]	0.4%	0.1%	no statistically significant relationship	43.3%	3.35 (90% CI 2.28–4.43) ms	3.64 (90% CI 2.60–4.68) ms	5.37 (90% CI 3.97–6.77) ms	6.77 (90% CI 4.67–8.87) ms	37.6%	7.7%	56.4%	1.59 fold	approximately 65%	approximately 30%	< 2%	42.1 (3.4%)
–	–	COc1cc(Nc2c(C#N)cnc3cc(OCCCN4CCN(C)CC4)c(OC)cc23)c(Cl)cc1Cl [bosutinib]	–	–	–	–	–	–	–	–	15.8%	26.3%	68.4%	–	–	–	–	–
